According to US10208021B2, “Substituted tetrahydroisoquinoline compounds as factor XIa inhibitors” (BRISTOL-MYERS SQUIBB COMPANY, priority 2011, dated 2019):
Counter-ions that a name gives are not always drawn.

Target: purified human Factor XIa (Homo sapiens (Human), UniProt P03951)
Assay: Factor XIa chromogenic substrate (S-2366) inhibition assay
Assay type: biochemical
Procedure, shortened: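 Ki derived from reaction velocities measured in the presence of inhibitor. Purified protease hydrolysed the chromogenic substrate; rate of absorbance change was followed over 20-180 minutes, depending on the protease.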

[1] = substrate S-2366, activity ranges, Table A

Chain of purified human Factor XIa (P03951 388-625): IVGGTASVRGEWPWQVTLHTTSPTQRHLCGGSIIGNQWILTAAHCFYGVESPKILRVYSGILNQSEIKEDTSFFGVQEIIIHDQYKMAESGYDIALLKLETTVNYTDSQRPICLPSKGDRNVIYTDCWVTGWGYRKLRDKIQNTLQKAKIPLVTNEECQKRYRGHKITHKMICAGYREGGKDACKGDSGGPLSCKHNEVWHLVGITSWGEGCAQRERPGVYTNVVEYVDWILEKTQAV
Chain of purified human Factor XIa (P03951 19-387 partner): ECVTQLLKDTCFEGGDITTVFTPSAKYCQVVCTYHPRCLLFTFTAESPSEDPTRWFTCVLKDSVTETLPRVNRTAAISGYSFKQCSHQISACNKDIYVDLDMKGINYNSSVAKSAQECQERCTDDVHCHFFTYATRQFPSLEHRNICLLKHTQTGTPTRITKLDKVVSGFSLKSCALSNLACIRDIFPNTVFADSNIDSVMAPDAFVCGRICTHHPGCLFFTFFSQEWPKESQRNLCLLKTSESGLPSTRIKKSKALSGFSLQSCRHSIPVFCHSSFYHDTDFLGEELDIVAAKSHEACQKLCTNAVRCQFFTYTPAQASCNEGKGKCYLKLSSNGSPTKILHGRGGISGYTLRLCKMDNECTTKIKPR

| SMILES | Ki [1] [nM] | Ki (substrate S-2366, Table 1) [nM] |
| --- | --- | --- |
| CN1CCN(c2cccc3c2CCN(C(=O)/C=C/c2c(-n4cnnn4)ccc(Cl)c2F)C3C(=O)Nc2ccc(C(=O)OC(C)(C)C)cc2)C(=O)C1 (stereo not drawn) [Example 57, (E)-tert-butyl 4-(2-(3-(3-chloro-2-fluoro-6-(1H-tetrazol-1-yl)phenyl)acryloyl)-5-(4-methyl-2-oxopiperazin-1-yl)-1,2,3,4-tetrahydroisoquinoline-1-carboxamido)benzoate] | 5 to 10 |  |
| COC(=O)Nc1ccc(NC(=O)C2c3cccc(N4CCOCC4)c3CCN2C(=O)/C=C/c2c(-n3cnnn3)ccc(Cl)c2F)cc1 (racemic) [Example 58] | 100 to 500 |  |
| O=C(O)c1ccc(NC(=O)C2c3cccc(N4CCC(c5ccccc5)CC4)c3CCN2C(=O)/C=C/c2c(-n3cnnn3)ccc(Cl)c2F)cc1 (racemic) [Example 95] | < 5 |  |
| CCOC(=O)c1ccc(NC(=O)[C@H]2c3cccc(N4CCNCC4=O)c3CCN2C(=O)/C=C/c2c(-n3cnnn3)ccc(Cl)c2F)cc1 [Example 189] |  | 1690 |
| CC(=O)c1ccc(Cl)c(F)c1/C=C/C(=O)N1CCc2c(cccc2N2CCS(=O)(=O)CC2)C1C(=O)Nc1ccc(C(=O)O)cc1 (racemic) [Example 215] |  | < 5 |
| CCOC(=O)c1ccc(NC(=O)C2c3cccc(N4CCN(C)CC4)c3CCN2C(=O)C=Cc2c(-n3cnnn3)ccc(Cl)c2F)cc1 (stereo not drawn) [compound 28] |  | 1220 |
| COC(=O)c1ccc(NC(=O)[C@@H]2c3cccc(N4CCC5(CC4)OCCO5)c3CCN2C(=O)/C=C/c2c(-n3cnnn3)ccc(Cl)c2F)cc1 [Example 144] | < 5 |  |
| O=C(NC1CC1)c1ccc(NC(=O)C2c3cccc(N4CCNCC4)c3CCN2C(=O)/C=C/c2cc(Cl)c(F)cc2-n2cnnn2)cc1 (racemic) [Example 67] | 100 to 500 |  |
| CN(C)[C@H]1CCN(c2cccc3c2CCN(C(=O)/C=C/c2c(-n4cnnn4)ccc(Cl)c2F)[C@@H]3C(=O)Nc2ccc(C(=O)OC(C)(C)C)cc2)C1 [Example 207, tert-butyl 4-((S)-2-((E)-3-(3-chloro-2-fluoro-6-(1H-tetrazol-1-yl)phenyl)acryloyl)-5-((S)-3-(dimethylamino)pyrrolidin-1-yl)-1,2,3,4-tetrahydroisoquinoline-1-carboxamido)benzoate, bis TFA salt] | 5 to 10 |  |
| N#Cc1ccc(NC(=O)C2c3cccc(N4CCNCC4)c3CCN2C(=O)/C=C/c2c(-n3cnnn3)ccc(Cl)c2F)cc1 (stereo not drawn) [Example 6] | 5 to 10 |  |
| O=C(O)c1ccc(NC(=O)C2c3cccc(N4CCCNCC4)c3CCN2C(=O)C=Cc2c(-n3cnnn3)ccc(Cl)c2F)cc1 (stereo not drawn) [Example 260] | < 5 |  |
| O=C(Nc1ccccc1)C1c2cccc(N3CCNCC3)c2CCN1C(=O)/C=C/c1c(-n2cnnn2)ccc(Cl)c1F (stereo not drawn) [Example 8] | 5 to 10 |  |
| CN(C)C1CCN(c2cccc3c2CCN(C(=O)/C=C/c2c(F)cccc2C(F)(F)F)C3C(=O)Nc2ccc(C(=O)O)cc2)CC1 (racemic) [Example 224] | 5 to 10 |  |
| CC(C)(C)OC(=O)c1ccc(NC(=O)C2c3cccc(N4CCCN(C(=O)OC(C)(C)C)CC4)c3CCN2C(=O)/C=C/c2c(-n3cnnn3)ccc(Cl)c2F)cc1 (racemic) [Example 257] |  | 2570 |
| CC(=O)c1ccc(Cl)c(F)c1C=CC(=O)N1CCc2c(cccc2N2CCC(N3CCCC3)CC2)C1C(=O)Nc1ccc(C(=O)OCCn2cncn2)cc1 (stereo not drawn) [Example 173] | 5 to 10 |  |
| O=C(Nc1ccc(Cl)cc1)C1c2cccc(N3CCC(N4CCCC4)CC3)c2CCN1C(=O)C=Cc1c(-n2cnnn2)ccc(Cl)c1F (stereo not drawn) [Example 111] | 500 to 5000 |  |
| CC(C)COC(=O)c1ccc(NC(=O)C2c3cccc(N4CCC(N5CCCC5)CC4)c3CCN2C(=O)/C=C/c2c(-n3cnnn3)ccc(Cl)c2F)cc1 (racemic) [Example 123] | < 5 |  |
| CCOC(=O)c1ccc(NC(=O)[C@H]2c3cccc(N4CCCCC4=O)c3CCN2C(=O)/C=C/c2c(-n3cnnn3)ccc(Cl)c2F)cc1 [compound 44] | 5 to 10 |  |

| SMILES | Ki [1] [nM] | Ki (substrate S-2366, Table 1) [nM] |
| --- | --- | --- |
| CCCCOC(=O)c1ccc(NC(=O)C2c3cccc(N4CCC(N5CCCC5)CC4)c3CCN2C(=O)C=Cc2c(-n3cnnn3)ccc(Cl)c2F)cc1 (stereo not drawn) [Example 113] | 100 to 500 |  |
| CCOC(=O)c1ccc(NC(=O)[C@H]2c3cccc(N4CCN(C)CC4=O)c3CCN2C(=O)/C=C/c2c(-n3cnnn3)ccc(Cl)c2F)cc1 [Example 191, (R,E)-Ethyl 4-(2-(3-(3-chloro-2-fluoro-6-(1H-tetrazol-1-yl)phenyl)acryloyl)-5-(4-methyl-2-oxopiperazin-1-yl)-1,2,3,4-tetrahydroisoquinoline-1-carboxamido)benzoate, TFA Salt] |  | 1050 |
| CCOC(=O)c1ccc(NC(=O)C2c3cccc(N4CCC(N5CCCC5)CC4)c3CCN2C(=O)C=Cc2c(C(F)(F)F)ccc(Cl)c2F)cc1 (stereo not drawn) [Example 177] | 5 to 10 |  |
| CC(=O)N1CCN(c2cccc3c2CC(C)(C)N(C(=O)/C=C/c2c(-n4cnnn4)ccc(Cl)c2F)[C@@H]3C(=O)Nc2ccc(C(=O)O)cc2)CC1 [Example 204] | < 5 |  |
| CC(C)(C)OC(=O)c1ccc(NC(=O)[C@@H]2c3cccc(N4CCCCC4=O)c3CCN2C(=O)/C=C/c2c(-n3cnnn3)ccc(Cl)c2F)cc1 [compound 37] |  | 86.5 |
| COCCCNC(=O)C1c2cccc(N3CCC(N4CCCC4)CC3)c2CCN1C(=O)/C=C/c1c(-n2cnnn2)ccc(Cl)c1F (racemic) [Example 229] | 100 to 500 |  |
| CC(=O)NCCNC(=O)c1ccc(NC(=O)C2c3cccc(N4CCNCC4)c3CCN2C(=O)/C=C/c2cc(Cl)c(F)cc2-n2cnnn2)cc1 (racemic) [Example 72] | 500 to 5000 |  |
| CC1(C)Cc2c(cccc2N2CCOCC2)[C@@H](C(=O)Nc2ccc(C(=O)O)cc2)N1C(=O)/C=C/c1c(-n2cnnn2)ccc(Cl)c1F [Example 199] | < 5 |  |
| CC(C)NC(=O)C1c2cccc(N3CCC(N4CCCC4)CC3)c2CCN1C(=O)/C=C/c1c(-n2cnnn2)ccc(Cl)c1F (racemic) [Example 240] |  | 47.1 |
| NC1CCN(c2cccc3c2CCN(C(=O)/C=C/c2c(-n4cnnn4)ccc(Cl)c2F)C3C(=O)Nc2ccc(C(=O)O)cc2)CC1 (racemic) [Example 97] | < 5 |  |
| CC(=O)c1ccc(Cl)c(F)c1/C=C/C(=O)N1CCc2c(cccc2N2CCCCC2=O)C1C(=O)Nc1ccc(C(=O)O)cc1 (racemic) [compound 38] | 5 to 10 |  |
| O=C(O)c1ccc(NC(=O)C2c3cccc(N4CCC(O)CC4)c3CCN2C(=O)/C=C/c2c(-n3cnnn3)ccc(Cl)c2F)cc1 (racemic) [Example 148] | < 5 |  |
| CN1CCN(c2cccc3c2CCN(C(=O)/C=C/c2c(-n4cnnn4)ccc(Cl)c2F)C3C(=O)Nc2ccc3cn[nH]c3c2)CC1 (stereo not drawn) [Example 27] | < 5 |  |
| O=C(O)c1ccc(NC(=O)C2c3cccc(N4CCCNCC4)c3CCN2C(=O)/C=C/c2c(-n3cnnn3)ccc(Cl)c2F)cc1 (racemic) [Example 256] | < 5 |  |
| CCNC(=O)c1ccc(NC(=O)C2c3cccc(N4CCNCC4)c3CCN2C(=O)/C=C/c2cc(Cl)c(F)cc2-n2cnnn2)cc1 (racemic) [Example 71] |  | 492 |
| CCOC(=O)c1ccc(NC(=O)[C@@H]2c3cccc(N4CCNCC4=O)c3CCN2C(=O)/C=C/c2c(-n3cnnn3)ccc(Cl)c2F)cc1 [Example 190] | 5 to 10 |  |
| O=C(O)c1ccc(NC(=O)C2c3cccc(N4CCC5(CCNCC5)CC4)c3CCN2C(=O)/C=C/c2c(-n3cnnn3)ccc(Cl)c2F)cc1 (racemic) [Example 146] | < 5 |  |
| CN1CCN(c2cccc3c2CCN(C(=O)/C=C/c2c(-n4cnnn4)ccc(Cl)c2F)C3C(=O)Nc2ccc(C(=O)O)cc2)CC1 (stereo not drawn) [Example 18] | < 5 |  |
